The values that follow come from article PMC10051810, “Modification of the Linker Amino Acid in the Cell-Penetrating Peptide NickFect55 Leads to Enhanced pDNA Transfection for In Vivo Applications” (Pharmaceutics, 2023).

In this data set the test system is BALB/c mice. Description: In vivo safety: ALAT and ASAT from blood, body weight. Set-up: species or system mouse. The method, then:
For in vivo studies, the pLuc was mixed with the CPP at CR2 in MilliQ water, wherein the dose per animal was 2.5 mg/kg. After 30 min of incubation at room temperature, glucose was added to the complexes to obtain an isotonic solution with a final injection volume of 336 µL, which was immediately injected intravenously via the tail vein.
In vivo safety was evaluated by measuring the alanine aminotransferase and the aspartate aminotransferase levels from the blood of mice injected with nanoparticles formed between NF55 analogues and pDNA. Additionally, the mice were weighed preinjection with the CPP-pDNA complexes and prior to sacrifice. […]
1 – Alanine aminotransferase 2 – Aspartate aminotransferase

[1] abbreviates: blood of mice injected i.v. with CPP/pDNA nanoparticles, pLuc 2.5 mg/kg, CR2.

Each structure is given as a SMILES string.

In the case of `CCCCCCCCCCCCCCCCCC(=O)N[C@@H](C)C(=O)NCC(=O)N[C@@H](Cc1ccc(O)cc1)C(=O)N[C@@H](CC(C)C)C(=O)N[C@@H](CC(C)C)C(=O)NCC(=O)NCCC[C@H](N)C(=O)N[C@H](C(=O)N[C@@H](CC(N)=O)C(=O)N[C@@H](CC(C)C)C(=O)N[C@@H](CCCCN)C(=O)N[C@@H](C)C(=O)N[C@@H](CC(C)C)C(=O)N[C@@H](C)C(=O)N[C@@H](C)C(=O)N[C@@H](CC(C)C)C(=O)N[C@@H](C)C(=O)N[C@@H](CCCCN)C(=O)N[C@@H](C)C(=O)N[C@H](C(=O)N[C@@H](CC(C)C)C(N)=O)[C@@H](C)CC)[C@@H](C)CC` [NF55], under setting [1], the “ALAT (alanine aminotransferase)” value is on record as 629 and the “ASAT (aspartate aminotransferase)” value is recorded as 184. This compound came in with a Pre-injection weight (weight of mice before injecting with CPP/pDNA nanoparticles) of 26.96 grams. Where the note is “weight of mice before sacrificing for ex vivo tissue analysis”, the Post-injection weight is listed as 25.35 grams.
